In JP2009512709A, “速効型インスリンの経鼻投与” (エムディーアールエヌエー，インコーポレイテッド, priority 2005, dated 2007):

Key:
EpiAirway = test: Insulin tissue permeation across EpiAirway, ELISA; format: in vitro ADME; details: in vitro study 3; Tween-containing formulations
[1] = Rabbit pharmacokinetics (serum insulin) after IN, SC, IV or oral insulin; format: in vivo, ニュージーランド白色ラビット; details: PK study 2
黄色ブドウ球菌、クロカビ、緑膿菌 = test: Antimicrobial effectiveness test (AET), USP and EP requirements; details: for AET result against EP requirements / AET result against USP requirements: insulin nasal spray formulations (placebo or active); for Preservative / antimicrobial effectiveness: in insulin nasal spray formulations, neutral pH
[2] = Compatibility of preservative with insulin (precipitation); format: physicochemical; details: presence in formulation caused insulin precipitation
グルコース = test: Human PD clinical study, glucose by glucometer; format: in vivo, ヒト; details: intranasal administration

In the case of `CCCCCCCCCC(=O)OC[C@H](COP(=O)([O-])OCC[N+](C)(C)C)OC(=O)CCCCCCCCC` [DDPC, L−α−ホスファチジルコリンジデカノイル], the “Effect of removing the excipient from the formulation on insulin permeation” value (EpiAirway) is reported as “影響を有しなかった” and the “Effect of removing DDPC on BA(%), Cmax and AUClast” value [1] is reported as “減少した”.

With `O=C([O-])CN(CCN(CC(=O)[O-])CC(=O)O)CC(=O)O.[Na+].[Na+]` [EDTA, エデト酸二ナトリウム] the “AET result against EP requirements” value (黄色ブドウ球菌、クロカビ、緑膿菌) was “有効であるとは思われなかった” and the “AET result against USP requirements” value (黄色ブドウ球菌、クロカビ、緑膿菌) was “有効であるとは思われなかった”.

In the case of `Cc1cccc(O)c1` [m−クレゾール], the “Preservative / antimicrobial effectiveness” value (黄色ブドウ球菌、クロカビ、緑膿菌) is reported as “有効な防腐剤ではなかった”.

For `CC(C)CC(N)B(O)O` (stereo not drawn) [ベンジルアルコール], the “Preservative / antimicrobial effectiveness” value (黄色ブドウ球菌、クロカビ、緑膿菌) was “有効な防腐剤ではなかった and 無効”.

For `CC(C)CC(N)B(O)O` (stereo not drawn) [塩化ベンズアルコニウム], the “Preservative / antimicrobial effectiveness” value (黄色ブドウ球菌、クロカビ、緑膿菌) was “最良の抗菌性能”, the “AET result against EP requirements” value (黄色ブドウ球菌、クロカビ、緑膿菌) was “優れた防腐剤” and the “AET result against USP requirements” value (黄色ブドウ球菌、クロカビ、緑膿菌) was “優れた防腐剤”. For the same compound, the Compatibility with insulin [2] was “不適合性”.

With `CC(C)CC(N)B(O)O` (stereo not drawn) [安息香酸ナトリウム] the “Preservative / antimicrobial effectiveness” value (黄色ブドウ球菌、クロカビ、緑膿菌) was “有効な防腐剤ではなかった”.

With “インスリン: recombinant native-sequence human insulin” the “Reduction of glucose (%) in patients” value (グルコース) was “有効”.
